Tests used:
Type in all cases: cell-based
Nav 1.5 = Nav 1.5 (Homo sapiens (Human), UniProt Q14524); assay: Nav 1.5 in vitro assay, IonWorks Quattro (IWQ) population patch-clamp; settings: HEK 293 cells stably transfected with Nav 1.5; 26th pulse to -20 mV
Protocol: (§1) Nav 1.7 and Nav 1.5 In Vitro Assays
(§2) HEK 293 cells stably transfected with either Nav 1.7 or with Nav 1.5 were recorded in population patch-clamp mode with the IonWorks® Quattro automated electrophysiology system in accordance with the manufacturer's specifications (Molecular Devices, LLC, Sunnyvale, Calif.). Sodium channel currents were measured in response to a train of depolarizations that induced successively greater inactivation.
(§3) Cells were held at −110 mV for three seconds (Nav 1.7) or half a second (Nav 1.5) from a holding voltage of −15 mV, then put through a series of 26 pulses of 150 msec duration to −20 mV at a frequency of 5 Hz. Cells were then left unclamped for a period of 3 to 8 minutes while a single concentration of test compound was added. Cells were then reclamped and put through the same voltage protocol. Current at the end of the 26th pulse to −20 mV was subtracted from the peak current evoked by the 26th pulse to −20 mV to correct for leak current. Percent block was calculated for each concentration in duplicate, and IC50 curves were fitted to percent block as a function of concentration.

Nav 1.7 [1] = biological target: T1, Nav 1.7 (Homo sapiens (Human), UniProt Q15858); assay: Nav 1.7 in vitro PX assay, PatchXpress whole cell voltage clamp; settings: HEK 293 cells stably transfected with human Nav1.7; partially inactivated state (20 to 50% inactivation)
T1 sequence (Q15858 whole entry): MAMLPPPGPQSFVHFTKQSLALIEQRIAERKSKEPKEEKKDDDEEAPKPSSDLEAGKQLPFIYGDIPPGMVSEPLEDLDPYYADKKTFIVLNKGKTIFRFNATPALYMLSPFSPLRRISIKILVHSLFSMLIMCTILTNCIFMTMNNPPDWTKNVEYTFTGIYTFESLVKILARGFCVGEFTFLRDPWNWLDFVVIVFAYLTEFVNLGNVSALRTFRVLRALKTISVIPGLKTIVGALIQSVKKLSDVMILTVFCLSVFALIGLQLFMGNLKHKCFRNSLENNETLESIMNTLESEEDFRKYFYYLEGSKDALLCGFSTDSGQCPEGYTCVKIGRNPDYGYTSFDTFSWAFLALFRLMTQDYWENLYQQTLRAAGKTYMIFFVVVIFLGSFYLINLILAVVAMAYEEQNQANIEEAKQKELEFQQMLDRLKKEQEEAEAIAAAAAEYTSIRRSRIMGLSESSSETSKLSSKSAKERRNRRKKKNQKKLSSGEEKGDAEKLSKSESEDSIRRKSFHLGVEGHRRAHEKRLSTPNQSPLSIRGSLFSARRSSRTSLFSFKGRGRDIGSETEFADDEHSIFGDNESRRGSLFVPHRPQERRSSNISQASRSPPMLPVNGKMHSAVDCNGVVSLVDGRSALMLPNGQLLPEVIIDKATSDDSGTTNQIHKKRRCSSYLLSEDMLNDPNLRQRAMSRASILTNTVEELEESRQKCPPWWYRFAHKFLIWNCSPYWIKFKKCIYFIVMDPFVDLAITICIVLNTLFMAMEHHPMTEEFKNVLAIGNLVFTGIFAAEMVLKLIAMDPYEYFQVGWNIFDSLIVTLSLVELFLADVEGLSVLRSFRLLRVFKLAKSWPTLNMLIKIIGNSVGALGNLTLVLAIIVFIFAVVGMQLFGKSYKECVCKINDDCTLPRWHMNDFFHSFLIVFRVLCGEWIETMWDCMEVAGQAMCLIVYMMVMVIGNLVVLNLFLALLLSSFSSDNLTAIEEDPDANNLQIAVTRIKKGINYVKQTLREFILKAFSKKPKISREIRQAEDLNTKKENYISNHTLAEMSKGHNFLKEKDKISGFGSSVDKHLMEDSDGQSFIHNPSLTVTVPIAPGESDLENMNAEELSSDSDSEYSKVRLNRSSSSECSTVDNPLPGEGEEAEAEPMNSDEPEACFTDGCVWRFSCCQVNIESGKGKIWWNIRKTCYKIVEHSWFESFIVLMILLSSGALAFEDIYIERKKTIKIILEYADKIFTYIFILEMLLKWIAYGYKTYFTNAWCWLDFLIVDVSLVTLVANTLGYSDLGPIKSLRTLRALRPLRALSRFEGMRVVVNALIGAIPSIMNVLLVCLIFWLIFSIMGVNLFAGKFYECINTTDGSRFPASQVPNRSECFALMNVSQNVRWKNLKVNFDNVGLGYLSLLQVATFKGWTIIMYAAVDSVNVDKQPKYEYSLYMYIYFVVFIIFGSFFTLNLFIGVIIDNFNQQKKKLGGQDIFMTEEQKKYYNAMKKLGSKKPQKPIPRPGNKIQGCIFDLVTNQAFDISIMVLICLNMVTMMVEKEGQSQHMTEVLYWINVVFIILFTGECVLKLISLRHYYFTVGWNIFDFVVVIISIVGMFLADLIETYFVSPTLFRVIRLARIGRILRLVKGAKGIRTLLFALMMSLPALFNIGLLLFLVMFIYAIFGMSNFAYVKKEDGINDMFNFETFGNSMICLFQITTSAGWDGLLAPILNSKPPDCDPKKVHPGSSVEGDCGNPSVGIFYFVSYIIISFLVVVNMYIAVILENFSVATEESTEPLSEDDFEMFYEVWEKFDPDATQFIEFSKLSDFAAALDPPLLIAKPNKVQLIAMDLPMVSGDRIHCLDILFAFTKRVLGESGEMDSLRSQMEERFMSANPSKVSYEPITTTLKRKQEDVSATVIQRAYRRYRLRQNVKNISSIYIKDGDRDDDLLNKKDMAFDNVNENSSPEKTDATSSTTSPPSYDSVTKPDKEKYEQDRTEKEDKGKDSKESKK
Protocol: Nav 1.7 In Vitro PX Assay
HEK 293 cells stably transfected with human Nav1.7 were recorded in whole cell voltage clamp mode with the PatchXpress automated electrophysiology system (Molecular Devices, LLC, Sunnyvale, Calif.). Compound effects were measured on a partially inactivated state of the sodium channel. Cells were clamped to a holding potential yielding 20 to 50% inactivation. To elicit sodium current, channels were activated by pulsing to −10 mV for 20 msec. This voltage protocol was repeated at a rate of 0.1 Hz throughout the experiment. A single concentration of test compound was applied to cells for a duration of 3 minutes. Peak sodium current was measured at the end of the compound addition period to determine percent inhibition. Three to five cells were tested per concentration, and IC50 curves were fitted to percent inhibition as a function of concentration.

Nav 1.7 [2] = biological target: T1, Nav 1.7; assay: Nav 1.7 in vitro assay, IonWorks Quattro (IWQ) population patch-clamp; settings: HEK 293 cells stably transfected with Nav 1.7; for IC50: 26th pulse to -20 mV; for inhibition at 4.9 µM: HEK293, values marked *, read-out: Nav 1.7 IWQ percent inhibition at 4.9 μM
Protocol: as §1, §2, §3

Chain of Nav 1.5 (Q14524 whole entry): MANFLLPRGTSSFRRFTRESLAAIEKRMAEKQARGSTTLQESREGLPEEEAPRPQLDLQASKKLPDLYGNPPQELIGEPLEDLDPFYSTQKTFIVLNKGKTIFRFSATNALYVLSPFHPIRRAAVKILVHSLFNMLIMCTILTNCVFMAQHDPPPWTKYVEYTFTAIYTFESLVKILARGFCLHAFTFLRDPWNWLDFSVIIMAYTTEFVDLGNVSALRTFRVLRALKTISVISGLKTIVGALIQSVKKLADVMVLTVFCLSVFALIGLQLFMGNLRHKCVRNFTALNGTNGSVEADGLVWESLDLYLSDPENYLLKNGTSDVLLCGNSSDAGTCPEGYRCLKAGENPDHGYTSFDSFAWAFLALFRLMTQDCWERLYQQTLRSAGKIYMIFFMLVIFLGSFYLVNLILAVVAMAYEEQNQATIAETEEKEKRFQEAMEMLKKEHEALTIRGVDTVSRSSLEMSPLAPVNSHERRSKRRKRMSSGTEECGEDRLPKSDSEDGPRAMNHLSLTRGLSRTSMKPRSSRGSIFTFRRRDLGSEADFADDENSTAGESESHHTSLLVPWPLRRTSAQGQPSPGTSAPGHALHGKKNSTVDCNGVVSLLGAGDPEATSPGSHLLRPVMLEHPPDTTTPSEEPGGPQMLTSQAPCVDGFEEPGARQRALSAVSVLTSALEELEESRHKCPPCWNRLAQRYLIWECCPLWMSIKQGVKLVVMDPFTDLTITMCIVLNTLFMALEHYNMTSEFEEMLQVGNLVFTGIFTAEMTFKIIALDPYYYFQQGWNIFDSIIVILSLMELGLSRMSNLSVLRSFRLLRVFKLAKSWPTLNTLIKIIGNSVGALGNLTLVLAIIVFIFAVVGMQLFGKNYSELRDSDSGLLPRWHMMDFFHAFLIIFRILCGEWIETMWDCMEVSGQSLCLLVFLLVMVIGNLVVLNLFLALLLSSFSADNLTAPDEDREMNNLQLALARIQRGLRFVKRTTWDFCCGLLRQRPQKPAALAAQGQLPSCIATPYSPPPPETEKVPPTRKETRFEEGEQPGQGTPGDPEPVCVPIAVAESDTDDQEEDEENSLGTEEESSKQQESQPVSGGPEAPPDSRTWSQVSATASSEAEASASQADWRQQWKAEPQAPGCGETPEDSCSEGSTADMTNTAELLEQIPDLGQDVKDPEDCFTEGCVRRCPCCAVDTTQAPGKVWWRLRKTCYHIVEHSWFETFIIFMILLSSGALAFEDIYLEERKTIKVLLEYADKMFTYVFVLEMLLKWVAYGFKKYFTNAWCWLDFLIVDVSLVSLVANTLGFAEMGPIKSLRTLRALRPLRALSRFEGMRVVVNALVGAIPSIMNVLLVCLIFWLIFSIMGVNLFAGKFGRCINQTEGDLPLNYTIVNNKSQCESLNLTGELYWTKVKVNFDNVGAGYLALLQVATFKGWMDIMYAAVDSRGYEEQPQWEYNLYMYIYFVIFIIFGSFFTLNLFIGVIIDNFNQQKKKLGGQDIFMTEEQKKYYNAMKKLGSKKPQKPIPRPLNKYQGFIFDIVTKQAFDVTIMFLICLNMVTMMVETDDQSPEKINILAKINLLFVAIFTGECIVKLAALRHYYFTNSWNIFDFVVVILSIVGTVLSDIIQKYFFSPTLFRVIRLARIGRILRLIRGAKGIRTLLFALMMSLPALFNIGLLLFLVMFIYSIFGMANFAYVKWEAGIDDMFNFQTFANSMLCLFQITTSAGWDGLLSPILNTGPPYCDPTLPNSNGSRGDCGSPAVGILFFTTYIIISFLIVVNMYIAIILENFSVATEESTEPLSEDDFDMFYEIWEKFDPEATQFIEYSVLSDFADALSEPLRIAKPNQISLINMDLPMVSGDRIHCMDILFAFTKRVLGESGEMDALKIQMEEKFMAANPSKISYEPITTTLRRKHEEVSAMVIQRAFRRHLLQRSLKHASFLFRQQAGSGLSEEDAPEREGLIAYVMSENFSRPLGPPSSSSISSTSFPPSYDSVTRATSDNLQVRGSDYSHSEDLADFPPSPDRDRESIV

| SMILES | IC50 (Nav 1.7 [1]) [nM] | IC50 (Nav 1.7 [2]) [nM] | inhibition at 4.9 µM (Nav 1.7 [2]) [%] | IC50 (Nav 1.5) [nM] |
| --- | --- | --- | --- | --- |
| CC1COc2cc(S(=O)(=O)Nc3nccs3)ccc2N1c1ccc(C(F)(F)F)cc1C#N (racemic) [Example 96, 4-(2-Cyano-4-(Trifluoromethyl)Phenyl)-3-Methyl-N-(Thiazol-2-Yl)-3,4-Dihydro-2H-Benzo[B][1,4]Oxazine-7-Sulfonamide] | 1890 | 823 |  | 1400 |
| CCC1CN(c2ccc(C(F)(F)F)cc2C#N)c2ccc(S(=O)(=O)Nc3nccs3)cc2O1 (racemic) [Example 100, 4-(2-Cyano-4-(Trifluoromethyl)Phenyl)-2-Ethyl-N-(Thiazol-2-Yl)-3,4-Dihydro-2H-Benzo[B][1,4]Oxazine-7-Sulfonamide] | 5790 | 679 |  | > 10000 |
| COc1cc(Cl)ccc1N1CC(C)Oc2cc(S(=O)(=O)Nc3nccs3)ccc21 (racemic) [Example 103, 4-(4-Chloro-2-Methoxyphenyl)-2-Methyl-N-(Thiazol-2-Yl)-3,4-Dihydro-2H-Benzo[B][1,4]Oxazine-7-Sulfonamide] | 422 | 40 |  | 9590 |
| O=S(=O)(Nc1nccs1)c1ccc2c(c1)OCCN2c1ccc(C(F)(F)F)cc1CC(O)CO (racemic) [Example 207, 4-(2-(2,3-Dihydroxypropyl)-4-(Trifluoromethyl)Phenyl)-N-(Thiazol-2-Yl)-3,4-Dihydro-2H-Benzo[B][1,4]Oxazine-7-Sulfonamide] | 86.7 | 25 |  | 3110 |
| C[C@H]1COc2cc(S(=O)(=O)Nc3nccs3)ccc2N1c1ccc(C(F)(F)F)cc1C#N (single isomer, unassigned) [Example 98] | 3430 | 996 |  | > 10000 |
| CCC1CN(c2ccc(C(F)(F)F)cc2C#N)c2ccc(S(=O)(=O)Nc3nccs3)cc2O1 (single isomer, unassigned) [Example 102] | 8890 | 1390 |  | > 10000 |
| O=S(=O)(Nc1nccs1)c1ccc2c(c1)OCCN2c1ccc(C(F)(F)F)cc1C[C@H](O)CO (single isomer, unassigned) [Example 208] | 258 | 18.5 |  | 896 |
| O=S(=O)(Nc1nccs1)c1ccc2c(c1)OCCN2c1ccc(C(F)(F)F)cc1C[C@@H](O)CO (single isomer, unassigned) [Example 209] | 165 | 12.5 |  | 497 |
| CN(C)CCn1ccc(NS(=O)(=O)c2ccc3c(c2)OCCN3c2ccc(C(F)(F)F)cc2Cl)n1 [Example 14, 4-(2-Chloro-4-(Trifluoromethyl)Phenyl)-N-(1-(2-(Dimethylamino)Ethyl)-1H-Pyrazol-3-Yl)-3,4-Dihydro-2H-Benzo[B][1,4]Oxazine-7-Sulfonamide 2,2,2-Trifluoroacetate] |  | 9310 |  | 8250 |
| Cn1ccc(NS(=O)(=O)c2ccc3c(c2)OCCN3c2ccc(C(F)(F)F)cc2Cl)n1 [Example 15, 4-(2-Chloro-4-(Trifluoromethyl)Phenyl)-N-(1-Methyl-1H-Pyrazol-3-Yl)-3,4-Dihydro-2H-Benzo[B][1,4]Oxazine-7-Sulfonamide] |  | 6110 |  | > 10000 |
| Cc1ccc2cnccc2c1N1CCOc2cc(S(=O)(=O)Nc3nccs3)ccc21 [Example 73, 4-(6-Methylisoquinolin-5-Yl)-N-(Thiazol-2-Yl)-3,4-Dihydro-2H-Benzo[B][1,4]Oxazine-7-Sulfonamide 2,2,2-Trifluoroacetate] |  | 7580 |  | > 10000 |
| O=S(=O)(Nc1cncs1)c1ccc2c(c1)OCCN2c1ccc(C(F)(F)F)cc1C1=CCNCC1 [Example 85, 4-(2-(1,2,3,6-Tetrahydropyridin-4-Yl)-4-(Trifluoromethyl)Phenyl)-N-(Thiazol-5-Yl)-3,4-Dihydro-2H-Benzo[B][1,4]Oxazine-7-Sulfonamide 2,2,2-Trifluoroacetate] |  |  | 41.1 | > 10000 |
| O=C1COc2cc(S(=O)(=O)Nc3nncs3)ccc2N1c1cccc(Cl)c1 [Example 92, 4-(3-Chlorophenyl)-3-Oxo-N-(1,3,4-Thiadiazol-2-Yl)-3,4-Dihydro-2H-Benzo[B][1,4]Oxazine-7-Sulfonamide] |  |  | 26.4 | > 10000 |
| N#Cc1cncc(N2CCOc3cc(S(=O)(=O)Nc4nccs4)ccc32)c1 [Example 117, 4-(5-Cyanopyridin-3-yl)-N-(thiazol-2-yl)-3,4-dihydro-2H-benzo[b][1,4]oxazine-7-sulfonamide] |  | 2140 |  | > 10000 |
| COc1ccc(N2CCOc3cc(S(=O)(=O)Nc4nccs4)ccc32)cc1OC [Example 119, 4-(3,4-Dimethoxyphenyl)-N-(thiazol-2-yl)-3,4-dihydro-2H-benzo[b][1,4]oxazine-7-sulfonamide] |  | 2530 |  | > 10000 |
| Cc1ccc(N2CCOc3cc(S(=O)(=O)Nc4nccs4)ccc32)c(C)n1 [Example 132, 4-(2,6-Dimethylpyridin-3-yl)-N-(thiazol-2-yl)-3,4-dihydro-2H-benzo[b][1,4]oxazine-7-sulfonamide] |  | 3560 |  | > 10000 |
| CCN(CC)C(=O)CN1CCOc2cc(S(=O)(=O)Nc3nccs3)ccc21 [Example 228, N,N-Diethyl-2-(7-(N-(Thiazol-2-Yl)Sulfamoyl)-2H-Benzo[B][1,4]Oxazin-4(3 H)-Yl)Acetamide] |  |  | 20 | > 10000 |

Further lines, with some results ahead:

| IC50 (Nav 1.7 [1]) [nM] | IC50 (Nav 1.7 [2]) [nM] | inhibition at 4.9 µM (Nav 1.7 [2]) [%] | SMILES | IC50 (Nav 1.5) [nM] |
| --- | --- | --- | --- | --- |
| 566 | 78.5 |  | CC1CN(c2ccc(C(F)(F)F)cc2C#N)c2ccc(S(=O)(=O)Nc3nccs3)cc2O1 (racemic) [Example 93, 4-(2-Cyano-4-(Trifluoromethyl)Phenyl)-2-Methyl-N-(Thiazol-2-Yl)-3,4-Dihydro-2H-Benzo[B][1,4]Oxazine-7-Sulfonamide] | 1840 |
| 288 | 42.5 |  | COc1cc(C#N)ccc1N1CC(C)Oc2cc(S(=O)(=O)Nc3nccs3)ccc21 (racemic) [Example 106, 4-(4-cyano-2-methoxyphenyl)-2-methyl-N-(thiazol-2-yl)-3,4-dihydro-2H-benzo[b][1,4]oxazine-7-sulfonamide] | > 10000 |
| 149 | 8.5 |  | C[C@H]1CN(c2ccc(C(F)(F)F)cc2C#N)c2ccc(S(=O)(=O)Nc3nccs3)cc2O1 (single isomer, unassigned) [Example 94] | 724 |
| 293 | 70.5 |  | C[C@@H]1CN(c2ccc(C(F)(F)F)cc2C#N)c2ccc(S(=O)(=O)Nc3nccs3)cc2O1 (single isomer, unassigned) [Example 95] | 6670 |
| 772 | 208 |  | C[C@@H]1COc2cc(S(=O)(=O)Nc3nccs3)ccc2N1c1ccc(C(F)(F)F)cc1C#N (single isomer, unassigned) [Example 97] | 851 |
| 3630 | 367 |  | CC[C@H]1CN(c2ccc(C(F)(F)F)cc2C#N)c2ccc(S(=O)(=O)Nc3nccs3)cc2O1 (single isomer, unassigned) [Example 101] | 8500 |
| 657 | 110 |  | COc1cc(Cl)ccc1N1C[C@H](C)Oc2cc(S(=O)(=O)Nc3nccs3)ccc21 (single isomer, unassigned) [Example 104] | > 10000 |
| 894 | 53.5 |  | COc1cc(Cl)ccc1N1C[C@@H](C)Oc2cc(S(=O)(=O)Nc3nccs3)ccc21 (single isomer, unassigned) [Example 105] | > 10000 |
| 309 | 28.5 |  | COc1cc(C#N)ccc1N1C[C@H](C)Oc2cc(S(=O)(=O)Nc3nccs3)ccc21 (single isomer, unassigned) [Example 107] | > 10000 |
| 303 | 45.5 |  | COc1cc(C#N)ccc1N1C[C@@H](C)Oc2cc(S(=O)(=O)Nc3nccs3)ccc21 (single isomer, unassigned) [Example 108] | > 10000 |
| 58.9 | 11.3 |  | O=S(=O)(Nc1ncns1)c1ccc2c(c1)OCCN2c1ccc(C(F)(F)F)cc1Br [Example 1, 4-(2-Bromo-4-(Trifluoromethyl)Phenyl)-N-(1,2,4-Thiadiazol-5-Yl)-3,4-Dihydro-2H-Benzo[B][1,4]Oxazine-7-Sulfonamide] | > 10000 |
| 38.6 | 7.83 |  | O=S(=O)(Nc1ncns1)c1ccc2c(c1)OCCN2c1ccc(C(F)(F)F)cc1Cl [Example 2, 4-(2-Chloro-4-(Trifluoromethyl)Phenyl)-N-(1,2,4-Thiadiazol-5-Yl)-3,4-Dihydro-2H-Benzo[B][1,4]Oxazine-7-Sulfonamide] | > 10000 |
